Measured values reported in US12077503B2, “Substituted cyclic amides and their use as herbicides” (FMC CORPORATION, priority 2015, dated 2024).
Like-named read-outs stand apart in the source and are kept apart here.

Legend:
Assay in all cases: Test B flooded paddy test
Type in all cases: in vivo
[1] = tested on: ducksalad (Heteranthera limosa); details: Heteranthera limosa, Flood, 250 g ai/ha
Summary of the method: (§1)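 Flooding to 3 cm over soil accompanied treatment, which consisted of adding compound to the standing water around 2-leaf plants; depth was then maintained. Visual assessment versus controls followed at 13 to 15 d (scale 0–100, 0 meaning no effect).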

[2] = tested on: rice (Oryra sativa); details: Oryza sativa, Flood, 250 g ai/ha
Summary of the method: as §1

[3] = tested on: barnyardgrass (Echinochloa crus-galli); details: Echinochloa crus-galli, Flood, 250 g ai/ha
Summary of the method: as §1

[4] = tested on: sedge, umbrella (small-flower umbrella sedge, Cyperus difformis); details: Cyperus difformis, Flood, 250 g ai/ha
Summary of the method: as §1

[5] = 360 h, visually evaluated after 13 to 15 d, read-out: Plant response rating, Ducksalad (0 to 100 scale where 0 is no effect and 100 is complete control)
[6] = 360 h, visually evaluated after 13 to 15 d, read-out: Plant response rating, Rice (0 to 100 scale where 0 is no effect and 100 is complete control)
[7] = 360 h, visually evaluated after 13 to 15 d, read-out: Plant response rating, Barnyardgrass (0 to 100 scale where 0 is no effect and 100 is complete control)
[8] = 360 h, visually evaluated after 13 to 15 d, read-out: Plant response rating, Sedge, Umbrella (0 to 100 scale where 0 is no effect and 100 is complete control)
[9] = 0 to 100 scale where 0 is no effect and 100 is complete control, read-out: Ducksalad plant response rating
[10] = 0 to 100 scale where 0 is no effect and 100 is complete control, read-out: Rice plant response rating
[11] = 0 to 100 scale where 0 is no effect and 100 is complete control, read-out: Barnyardgrass plant response rating
[12] = 0 to 100 scale where 0 is no effect and 100 is complete control, read-out: Sedge, Umbrella plant response rating
[13] = scale of 0 to 100 where 0 is no effect and 100 is complete control, read-out: Ducksalad plant response rating
[14] = scale of 0 to 100 where 0 is no effect and 100 is complete control, read-out: Rice plant response rating
[15] = scale of 0 to 100 where 0 is no effect and 100 is complete control, read-out: Barnyardgrass plant response rating
[16] = scale of 0 to 100 where 0 is no effect and 100 is complete control, read-out: Sedge, Umbrella plant response rating

Q: Which results are given for `N#Cc1cc([C@H]2CNC(=O)[C@]2(O)C(=O)Nc2cccc(F)c2F)ccc1F` [Compound 1374]?
A: pest or weed control at 250 g/ha [1, 5]: 0%; pest or weed control at 250 g/ha [2, 6]: 20%; pest or weed control at 250 g/ha [3, 7]: 0%; pest or weed control at 250 g/ha [4, 8]: 0%

Q: Which pest or weed control at 250 g/ha [1, 9] does the source give for `Cc1ccc([C@H]2CCN(C)C(=O)[C@@H]2C(=O)Nc2ccccc2C(F)(F)F)cc1` [Compound 1219] here?
A: 60%

Q: What about the pest or weed control at 250 g/ha [2, 10] of the same compound?
A: 0%

Q: What about the pest or weed control at 250 g/ha [3, 11] of the same compound?
A: 0%

Q: And the pest or weed control at 250 g/ha [4, 12]?
A: 40%

Q: `CN1C[C@H](c2ccc(C(F)(F)F)cc2)[C@@H](C(=O)Nc2cccc(C#N)c2F)C1=O` [Compound 1381] was tested. Which pest or weed control at 250 g/ha [1, 5] did it give?
A: 100%

Q: What about the pest or weed control at 250 g/ha [2, 6] of the same compound?
A: 0%

Q: And the pest or weed control at 250 g/ha [3, 7]?
A: 65%

Q: And the pest or weed control at 250 g/ha [4, 8]?
A: 0%

Q: `CN1CC[C@H](c2cccc(Cl)c2)[C@@H](C(=O)Nc2ccccc2S(C)(=O)=O)C1=O` [Compound 923] was tested. Which pest or weed control at 250 g/ha [1, 13] did it give?
A: 0%

Q: And the pest or weed control at 250 g/ha [2, 14]?
A: 0%

Q: And the pest or weed control at 250 g/ha [3, 15]?
A: 0%

Q: And the pest or weed control at 250 g/ha [4, 16]?
A: 0%

Q: How did the pest or weed control at 250 g/ha [1, 13] turn out when `O=C1NC[C@H](c2cc(F)c(F)c(F)c2)[C@H]1C(=O)Nc1ccc(F)c(F)c1F` [Compound 756] was run?
A: 100%

Q: And the pest or weed control at 250 g/ha [2, 14]?
A: 0%

Q: What about the pest or weed control at 250 g/ha [3, 15] of the same compound?
A: 50%

Q: And the pest or weed control at 250 g/ha [4, 16]?
A: 0%

Q: `O=C1NC[C@H](c2ccc3c(c2)CCO3)[C@H]1C(=O)Nc1cccc(F)c1F` [Compound 785] was tested. Which pest or weed control at 250 g/ha [1, 13] did it give?
A: 90%

Q: And the pest or weed control at 250 g/ha [2, 14]?
A: 0%

Q: What about the pest or weed control at 250 g/ha [3, 15] of the same compound?
A: 40%

Q: What about the pest or weed control at 250 g/ha [4, 16] of the same compound?
A: 0%

Q: For `O=C(Nc1cccc(F)c1F)[C@H]1C(=O)N(O)CC[C@@H]1c1ccc(F)cc1` [Compound 805], which pest or weed control at 250 g/ha [1, 13] is on record?
A: 0%

Q: What about the pest or weed control at 250 g/ha [2, 14] of the same compound?
A: 0%

Q: What about the pest or weed control at 250 g/ha [3, 15] of the same compound?
A: 0%

Q: And the pest or weed control at 250 g/ha [4, 16]?
A: 0%

Q: What does the source list for `CCc1cc(CC)cc([C@H]2CN(C)C(=O)[C@@H]2C(=O)Nc2ccccc2C(F)(F)F)c1` [Compound 737]?
A: pest or weed control at 250 g/ha [1, 13]: 0%; pest or weed control at 250 g/ha [2, 14]: 0%; pest or weed control at 250 g/ha [3, 15]: 0%; pest or weed control at 250 g/ha [4, 16]: 0%

Q: What does the source list for `CN1C[C@H](c2ccc(C(F)(F)F)cc2)[C@@H](C(=O)Nc2ccccc2)C1=O` [Compound 1253]?
A: pest or weed control at 250 g/ha [1, 9]: 100%; pest or weed control at 250 g/ha [2, 10]: 0%; pest or weed control at 250 g/ha [3, 11]: 40%; pest or weed control at 250 g/ha [4, 12]: 0%

Q: For `COc1ccc([C@H]2CN(C)C(=O)[C@@H]2C(=O)Nc2ccccc2SC)c(OC)c1` [Compound 1216], which pest or weed control at 250 g/ha [1, 9] is on record?
A: 0%

Q: What about the pest or weed control at 250 g/ha [2, 10] of the same compound?
A: 0%

Q: And the pest or weed control at 250 g/ha [3, 11]?
A: 0%

Q: And the pest or weed control at 250 g/ha [4, 12]?
A: 0%

Q: Which results are given for `CN1CC[C@H](c2ccc(C(F)(F)F)cc2)[C@@H](C(=O)Nc2ccccc2C(F)(F)F)C1=O` [Compound 1224]?
A: pest or weed control at 250 g/ha [1, 9]: 70%; pest or weed control at 250 g/ha [2, 10]: 0%; pest or weed control at 250 g/ha [3, 11]: 0%; pest or weed control at 250 g/ha [4, 12]: 0%

Q: Which results are given for `Cc1cc(F)cc([C@H]2CNC(=O)[C@@H]2C(=O)Nc2ccccc2S(C)(=O)=O)c1` [Compound 1307]?
A: pest or weed control at 250 g/ha [1, 9]: 100%; pest or weed control at 250 g/ha [2, 10]: 20%; pest or weed control at 250 g/ha [3, 11]: 30%; pest or weed control at 250 g/ha [4, 12]: 0%

Q: Which results are given for `O=C1NC[C@H](c2ccc(C(F)(F)F)cc2)[C@H]1C(=O)Nc1ccccc1C1CC1` [Compound 746]?
A: pest or weed control at 250 g/ha [1, 13]: 95%; pest or weed control at 250 g/ha [2, 14]: 0%; pest or weed control at 250 g/ha [3, 15]: 0%; pest or weed control at 250 g/ha [4, 16]: 0%

Q: Which results are given for `O=C1NC[C@H](c2cccc(C(F)(F)F)c2)[C@H]1C(=O)Nc1ccccc1C1CC1` [Compound 748]?
A: pest or weed control at 250 g/ha [1, 13]: 75%; pest or weed control at 250 g/ha [2, 14]: 25%; pest or weed control at 250 g/ha [3, 15]: 0%; pest or weed control at 250 g/ha [4, 16]: 0%

Q: Which pest or weed control at 250 g/ha [1, 9] does the source give for `CN1CC[C@H](c2ccc(C(F)(F)F)cc2)[C@@H](C(=O)Nc2ccc(F)c(F)c2F)C1=O` [Compound 1226] here?
A: 100%

Q: And the pest or weed control at 250 g/ha [2, 10]?
A: 20%

Q: And the pest or weed control at 250 g/ha [3, 11]?
A: 60%

Q: And the pest or weed control at 250 g/ha [4, 12]?
A: 0%

Q: What does the source list for `Cc1ccc([C@H]2CN(C)C(=O)[C@@H]2C(=O)Nc2cccc(F)c2C)cc1C` [Compound 732]?
A: pest or weed control at 250 g/ha [1, 13]: 100%; pest or weed control at 250 g/ha [2, 14]: 0%; pest or weed control at 250 g/ha [3, 15]: 45%; pest or weed control at 250 g/ha [4, 16]: 0%
